Experimental data published in ChEMBL document CHEMBL1201862, “PubChem BioAssay data set” (2004).
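Interpolation was linear, between the two tested concentrations surrounding the appropriate level; five concentrations were tested over 48 hours in 96-well plates. GI50: concentration for 50% inhibition of growth.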 Active and inactive are the calls of the source. Rule as the data show it: active = GI50 up to about 1.1 µM and inactive = higher.

Assays:
Test in all cases: inhibition of tumour cell growth, NCI panel, 48 h
SK-MEL-28 = system: SK-MEL-28
M19-MEL = system: M19-MEL
NCI-H23 = system: NCI-H23
ACHN = system: ACHN
U-251 = system: U-251
HOP-18 = system: HOP-18
NCI-H460 = system: NCI-H460
UACC-62 = system: UACC-62
786-0 = system: 786-0
TK-10 = system: TK-10
CCRF-CEM = system: CCRF-CEM
OVCAR-4 = system: OVCAR-4
HOP-92 = system: HOP-92
CAKI-1 = system: CAKI-1
KM12 = system: KM12
OVCAR-5 = system: OVCAR-5
SF-268 = system: SF-268
SF-539 = system: SF-539
HT-29 = system: HT-29
OVCAR-8 = system: OVCAR-8
SF-295 = system: SF-295
SK-MEL-2 = system: SK-MEL-2
A549 = system: A549
UO-31 = system: UO-31
SNB-75 = system: SNB-75
LOX IMVI = system: LOX IMVI
DMS-114 = system: DMS-114
HL-60 = system: HL-60
MOLT-4 = system: MOLT-4
RPMI-8226 = system: RPMI-8226
DMS-273 = system: DMS-273
Malme-3M = system: Malme-3M
UACC-257 = system: UACC-257
HCT-15 = system: HCT-15
K562 = system: K562
HCC 2998 = system: HCC 2998
M14 = system: M14
IGROV-1 = system: IGROV-1
SN12C = system: SN12C
HOP-62 = system: HOP-62
NCI-H522 = system: NCI-H522
EKVX = system: EKVX
SK-MEL-5 = system: SK-MEL-5
SK-OV-3 = system: SK-OV-3
DLD-1 = system: DLD-1
RXF 393 = system: RXF 393
SW-620 = system: SW-620
KM-20L2 = system: KM-20L2
LXFL 529 = system: LXFL 529
COLO 205 = system: COLO 205
OVCAR-3 = system: OVCAR-3
RXF 631 = system: RXF 631
SNB-19 = system: SNB-19
SR = system: SR
A498 = system: A498
SNB-78 = system: SNB-78
HCT-116 = system: HCT-116

## OC1c2ccccc2C2C(O)c3ccccc3C12 (centres undefined)
SK-MEL-28
  GI50: > 100 µM (inactive)
M19-MEL
  GI50: > 100 µM (inactive)
NCI-H23
  GI50: > 100 µM (inactive)
ACHN
  GI50: > 100 µM (inactive)
U-251
  GI50: > 100 µM (inactive)
HOP-18
  GI50: > 100 µM (inactive)
NCI-H460
  GI50: > 100 µM (inactive)
UACC-62
  GI50: > 100 µM (inactive)
786-0
  GI50: > 100 µM (inactive)
TK-10
  GI50: > 100 µM (inactive)
CCRF-CEM
  GI50: > 100 µM (inactive)
OVCAR-4
  GI50: > 100 µM (inactive)
HOP-92
  GI50: > 100 µM (inactive)
CAKI-1
  GI50: > 100 µM (inactive)
KM12
  GI50: > 100 µM (inactive)
OVCAR-5
  GI50: > 100 µM (inactive)
SF-268
  GI50: > 100 µM (inactive)
SF-539
  GI50: > 100 µM (inactive)
HT-29
  GI50: > 100 µM (inactive)
OVCAR-8
  GI50: > 100 µM (inactive)
SF-295
  GI50: > 100 µM (inactive)
SK-MEL-2
  GI50: > 100 µM (inactive)
A549
  GI50: > 100 µM (inactive)
UO-31
  GI50: > 100 µM (inactive)
SNB-75
  GI50: 89.5 µM (inactive)
LOX IMVI
  GI50: > 100 µM (inactive)
DMS-114
  GI50: > 100 µM (inactive)
HL-60
  GI50: > 100 µM (inactive)
MOLT-4
  GI50: > 100 µM (inactive)
RPMI-8226
  GI50: > 100 µM (inactive)
DMS-273
  GI50: > 100 µM (inactive)
Malme-3M
  GI50: > 100 µM (inactive)
UACC-257
  GI50: > 100 µM (inactive)
HCT-15
  GI50: > 100 µM
K562
  GI50: > 100 µM (inactive)
HCC 2998
  GI50: > 100 µM (inactive)
M14
  GI50: > 100 µM (inactive)
IGROV-1
  GI50: > 100 µM (inactive)
SN12C
  GI50: > 100 µM (inactive)
HOP-62
  GI50: > 100 µM (inactive)
NCI-H522
  GI50: > 100 µM (inactive)
EKVX
  GI50: > 100 µM (inactive)
SK-MEL-5
  GI50: > 100 µM (inactive)
SK-OV-3
  GI50: > 100 µM (inactive)
DLD-1
  GI50: > 100 µM (inactive)
RXF 393
  GI50: > 100 µM (inactive)
SW-620
  GI50: > 100 µM (inactive)
KM-20L2
  GI50: > 100 µM (inactive)
LXFL 529
  GI50: > 100 µM (inactive)
COLO 205
  GI50: > 100 µM (inactive)
OVCAR-3
  GI50: > 100 µM (inactive)
RXF 631
  GI50: > 100 µM (inactive)

## N#Cc1c(N)oc2cc3c(C#N)c(N)oc3cc12
SK-MEL-28
  GI50: > 100 µM (inactive)
M19-MEL
  GI50: > 100 µM (inactive)
NCI-H23
  GI50: > 100 µM (inactive)
ACHN
  GI50: > 100 µM (inactive)
U-251
  GI50: > 100 µM (inactive)
HOP-18
  GI50: > 100 µM (inactive)
NCI-H460
  GI50: > 100 µM (inactive)
UACC-62
  GI50: > 100 µM (inactive)
786-0
  GI50: > 100 µM (inactive)
TK-10
  GI50: > 100 µM (inactive)
CCRF-CEM
  GI50: > 100 µM (inactive)
OVCAR-4
  GI50: > 100 µM (inactive)
HOP-92
  GI50: > 100 µM (inactive)
CAKI-1
  GI50: > 100 µM (inactive)
KM12
  GI50: > 100 µM (inactive)
OVCAR-5
  GI50: > 100 µM (inactive)
SF-268
  GI50: > 100 µM (inactive)
SF-539
  GI50: > 100 µM (inactive)
SNB-19
  GI50: > 100 µM (inactive)
HT-29
  GI50: > 100 µM (inactive)
OVCAR-8
  GI50: > 100 µM (inactive)
SF-295
  GI50: > 100 µM (inactive)
SK-MEL-2
  GI50: > 100 µM (inactive)
A549
  GI50: > 100 µM (inactive)
UO-31
  GI50: > 100 µM (inactive)
SNB-75
  GI50: 83.6 µM (inactive)
LOX IMVI
  GI50: > 100 µM (inactive)
DMS-114
  GI50: > 100 µM (inactive)
HL-60
  GI50: > 100 µM (inactive)
MOLT-4
  GI50: > 100 µM (inactive)
RPMI-8226
  GI50: > 100 µM (inactive)
DMS-273
  GI50: > 100 µM (inactive)
Malme-3M
  GI50: > 100 µM (inactive)
UACC-257
  GI50: > 100 µM (inactive)
HCT-15
  GI50: > 100 µM
K562
  GI50: > 100 µM (inactive)
HCC 2998
  GI50: > 100 µM (inactive)
M14
  GI50: > 100 µM (inactive)
IGROV-1
  GI50: > 100 µM (inactive)
SN12C
  GI50: > 100 µM (inactive)
HOP-62
  GI50: > 100 µM (inactive)
NCI-H522
  GI50: > 100 µM (inactive)
EKVX
  GI50: > 100 µM (inactive)
SK-MEL-5
  GI50: > 100 µM (inactive)
SK-OV-3
  GI50: > 100 µM (inactive)
DLD-1
  GI50: > 100 µM (inactive)
RXF 393
  GI50: > 100 µM (inactive)
SW-620
  GI50: > 100 µM (inactive)
KM-20L2
  GI50: > 100 µM (inactive)
LXFL 529
  GI50: > 100 µM (inactive)
COLO 205
  GI50: > 100 µM (inactive)
OVCAR-3
  GI50: > 100 µM (inactive)
RXF 631
  GI50: > 100 µM (inactive)

## ClC(Cl)[Si]12OCCN(CCO1)CCO2
SR
  GI50: > 100 µM (inactive)
SK-MEL-28
  GI50: > 100 µM (inactive)
NCI-H23
  GI50: > 100 µM (inactive)
ACHN
  GI50: > 100 µM (inactive)
U-251
  GI50: > 100 µM (inactive)
HOP-18
  GI50: > 100 µM (inactive)
NCI-H460
  GI50: > 100 µM (inactive)
UACC-62
  GI50: > 100 µM (inactive)
A498
  GI50: > 100 µM (inactive)
786-0
  GI50: > 100 µM (inactive)
SNB-78
  GI50: > 100 µM (inactive)
TK-10
  GI50: > 100 µM (inactive)
CCRF-CEM
  GI50: > 100 µM (inactive)
HOP-92
  GI50: > 100 µM (inactive)
CAKI-1
  GI50: > 100 µM (inactive)
KM12
  GI50: > 100 µM (inactive)
OVCAR-5
  GI50: > 100 µM (inactive)
SF-268
  GI50: > 100 µM (inactive)
SF-539
  GI50: > 100 µM (inactive)
SNB-19
  GI50: > 100 µM (inactive)
HT-29
  GI50: > 100 µM (inactive)
OVCAR-8
  GI50: > 100 µM (inactive)
SF-295
  GI50: > 100 µM (inactive)
SK-MEL-2
  GI50: > 100 µM (inactive)
A549
  GI50: > 100 µM (inactive)
HCT-116
  GI50: > 100 µM (inactive)
UO-31
  GI50: > 100 µM (inactive)
SNB-75
  GI50: > 100 µM (inactive)
DMS-114
  GI50: > 100 µM (inactive)
HL-60
  GI50: > 100 µM (inactive)
MOLT-4
  GI50: > 100 µM (inactive)
RPMI-8226
  GI50: > 100 µM (inactive)
DMS-273
  GI50: > 100 µM (inactive)
Malme-3M
  GI50: > 100 µM (inactive)
UACC-257
  GI50: > 100 µM (inactive)
K562
  GI50: > 100 µM (inactive)
HCC 2998
  GI50: > 100 µM (inactive)
IGROV-1
  GI50: > 100 µM (inactive)
SN12C
  GI50: > 100 µM (inactive)
NCI-H522
  GI50: > 100 µM (inactive)
SK-MEL-5
  GI50: > 100 µM (inactive)
SK-OV-3
  GI50: > 100 µM (inactive)
DLD-1
  GI50: > 100 µM (inactive)
RXF 393
  GI50: > 100 µM (inactive)
SW-620
  GI50: > 100 µM (inactive)
LXFL 529
  GI50: > 100 µM (inactive)
COLO 205
  GI50: > 100 µM (inactive)
OVCAR-3
  GI50: > 100 µM (inactive)
RXF 631
  GI50: > 100 µM (inactive)
